Experimental data reported in patent US9078916B2, “Method for producing and using a copolymer of sodium carboxymethyl cellulose and gossypol” (Limited Liability Company “Nearmedic Plus”, priority 2010, dated 2015).
Entries after “also recorded” stand apart in the source; their conditions may differ.

Test system: 6-year children with autistic spectrum disorders and severe cognitive impairments
Assay: Complex therapy of 6-year children, copolymer tablets added to basic therapy with neuroleptics
Format: in vivo
Source text: The method can be used for the treatment of autistic disorders and cognitive impairments in 6-year children. A treatment regimen is selected by a specialist depending on the severity of a disease, condition and age of a patient. In particular, the treatment can be performed according to the following regimen: administration of a medicament 3 times per day for 5 days followed by the 5-day break. This ten-day cycle is repeated […]. The total duration of the treatment is 30 days. A dose of the active agent is 36 mg/day. Then, the course should be repeated.
The efficacy and safety of the use of sodium carboxymethyl cellulose polymer with a degree of substitution of 0.35 to 0.80 and gossypol, of formula (I) in a complex therapy of 6-year children with autistic spectrum disorders and severe cognitive impairments were studied. The children were administered with a medicament comprising a copolymer of sodium carboxymethyl cellulose with a degree of substitution of 0.35 to 0.80 and gossypol, of formula (I) (tablets containing 12 mg of the active agent, which composition is shown in Table 2) on the background of basic therapy with neuroleptics such as neuleptil, haloperidol, aminazine, teraligen, triphtazine, eglonil, azaleptin chlorprothixene. Antidepressants (e.g., anafranil) and anticonvulsants (finlepsin, trileptal, or topamax) were used in some cases. Neuroleptics, antidepressants and anticonvulsants were used in optimal therapeutic doses. […] When the therapy was supplemented with a medicament comprising a copolymer of sodium carboxymethyl cellulose with a degree of substitution of 0.35 to 0.80 and gossypol, of formula (I), the manifestations of encopresis and enuresis ceased, catatonic disorders decreased, cognitive functions improved, and speech appeared. In patients with mild to moderate autism, restricted repetitive behavior disappeared.

[1] = patients with very severe autism, therapy supplemented with the medicament

“sodium salt of copolymer of carboxymethyl cellulose with a degree of substitution of 0.35 to 0.80 and gossypol” was tested, and the “resistance to therapy with neuroleptics / psychotropic drugs” value (added to basic therapy, especially patients with very severe autism, 12 mg tablets) was “decreased; also recorded: elimination”, the “negative side effects on a patient” value (in vivo) was “does not have negative side effects” and the tolerability (in vivo) was “well tolerable”. The “toxic and allergic reactions” value (in vivo) was “not reported”, the restricted repetitive behavior (patients with mild to moderate autism) was “disappeared” and the catatonic disorders [1] was “decreased”. The “manifestations of encopresis and enuresis” value [1] was “ceased”, the speech [1] was “appeared” and the cognitive functions (therapy supplemented with the medicament) was “improved; also recorded: significant improvement”. The “mental condition of the patients” value (when administering the medicament) was “improved”.
